Results reported in patent publication US8987194B2, “Mutant Nisin ser 29 derivatives and the use thereof” (priority 2009, dated 2015).
Where two headings read alike, the source gives them in different places. Where no end group is shown, it is not given here.

Tests used:
[1] = literature reports; cited from earlier work
[2] = tested on: Gram-positive pathogens including Listeria monocytogenes and/or Staphylococcus aureus; details: cited from earlier work
gram-negative = details: introduction of positively charged residues; cited from earlier work
pore formation = details: cited from earlier work
[3] = tested on: penicillin-susceptible strain of Strep. pneumoniae; details: cited from earlier work
L. lactis HP [4] = experiment: Agarose-based diffusion assay of Nisin A S29 supernatants; type: cell-based, L. lactis spp cremoris; details: for Measurement of inhibitory zone, Average a + b + c: average of three replicates; for Measurement of inhibitory zone, L. lactis HP (a): replicate a; for Measurement of inhibitory zone, L. lactis HP (b): replicate b; for Measurement of inhibitory zone, L. lactis HP (c): replicate c
Description: The Nisin A S29 derivatives were retested using this assay (See FIG. 1).
The modified agarose-based assay was performed against 2 indicator strains, L. lactis spp cremoris HP (Table. 6) and Listeria monocytogenes LO28 (Table. 7).

L. lactis HP [5] = experiment: Deferred antagonism assay (agar overlay); type: cell-based, Lactococcus lactis spp cremoris; details: in Table 2 a listed strain = enhanced
Description: (§1) Deferred antagonism assays were performed by replicating strains on GM17 agar plates and allowing them to grow overnight before overlaying with either GM17/BHI/TSB-YE/MH agar (0.75% w/v agar) seeded with the appropriate indicator strain. For higher throughput screening of the S29X bank, deferred antagonism assays were performed by replicating strains using a 96 pin replicator (Boekel) or spotting 5 μl of a fresh overnight culture on GM17 agar plates and allowing them to grow overnight. Following overnight growth the strains were subjected to UV radiation for 30 minutes prior to overlaying with either GM17/BHI/TS/MH agar (0.75% w/v agar) seeded with the appropriate indicator

S. aureus RF122 = experiment: Deferred antagonism assay (agar overlay); type: cell-based, Staphylococcus aureus; details: in Table 2 a listed strain = enhanced
Description: as §1

## I1W: aromatic residue-containing form of Nisin, literature (WTSISLCTPGCKTGALMGCNMKTATCHCSIHVSK; UniProt P13068 24-57, looked up, variant I1W)
[1]
  antimicrobial activity of bioengineered derivative relative to Nisin: reduced antimicrobial activity

## I30W: aromatic residue-containing form of Nisin, literature (ITSISLCTPGCKTGALMGCNMKTATCHCSWHVSK; UniProt P13068 24-57, looked up, variant I30W)
[1]
  antimicrobial activity of bioengineered derivative relative to Nisin: reduced antimicrobial activity

## K22E (ITSISLCTPGCKTGALMGCNMETATCHCSIHVSK; UniProt P13068 24-57, looked up, variant K22E)
[1]
  antimicrobial activity of bioengineered derivative relative to Nisin: detrimental impact

## K22S: Nisin hinge region derivative (Field et al., 2008) (ITSISLCTPGCKTGALMGCNMSTATCHCSIHVSK; cysteine pairing not given here; also: lantibiotic nisin-A post-translational modifications, not placed; UniProt P13068 24-57, looked up, variant K22S)
[2]
  bioactivity and specific activity against Gram-positive pathogens: enhanced bioactivity and specific activity

## M21E (ITSISLCTPGCKTGALMGCNEKTATCHCSIHVSK; UniProt P13068 24-57, looked up, variant M21E)
[1]
  antimicrobial activity of bioengineered derivative relative to Nisin: detrimental impact

## M21K (ITSISLCTPGCKTGALMGCNKKTATCHCSIHVSK; UniProt P13068 24-57, looked up, variant M21K)
gram-negative
  outcome with respect to anti-gram-negative activity: more beneficial outcome

## N20F: aromatic residue-containing form of Nisin, literature (ITSISLCTPGCKTGALMGCFMKTATCHCSIHVSK; UniProt P13068 24-57, looked up, variant N20F)
[1]
  antimicrobial activity of bioengineered derivative relative to Nisin: reduced antimicrobial activity

## N20P/M21P: Nisin peptide with proline incorporation, literature (ITSISLCTPGCKTGALMGCPPKTATCHCSIHVSK; cysteine pairing not given here; also: lantibiotic nisin-A post-translational modifications, not placed; UniProt P13068 24-57, looked up, variant N20P M21P)
Pore formation
  pore formation: incapable of pore formation

## N20P: Nisin hinge region derivative (Field et al., 2008) (ITSISLCTPGCKTGALMGCPMKTATCHCSIHVSK; cysteine pairing not given here; also: lantibiotic nisin-A post-translational modifications, not placed; UniProt P13068 24-57, looked up, variant N20P)
[2]
  bioactivity and specific activity against Gram-positive pathogens: enhanced bioactivity and specific activity

## Nisin
[3]; before serial exposure to Nisin (1 mg/L)
  minimum inhibitory concentration (MIC): 0.4 µg/mL
[3]; stable Nisin-resistant mutants after serial exposure to Nisin (1 mg/L)
  minimum inhibitory concentration (MIC): 6.4 µg/mL

## Nisin A S29F: Nisin A derivative with F at position 29 (ITSISLCTPGCKTGALMGCNMKTATCHCFIHVSK; cysteine pairing not given here; also: lantibiotic nisin-A post-translational modifications, not placed; UniProt P13068 24-57, looked up, variant S29F)
L. lactis HP [4]
  Measurement of inhibitory zone, Average a + b + c: 11.0 mm
  Measurement of inhibitory zone, L. lactis HP (a): 10.6 mm
  Measurement of inhibitory zone, L. lactis HP (b): 12.2 mm
  Measurement of inhibitory zone, L. lactis HP (c): 10.2 mm

## Nisin A S29H: Nisin A derivative with H at position 29 (ITSISLCTPGCKTGALMGCNMKTATCHCHIHVSK; cysteine pairing not given here; also: lantibiotic nisin-A post-translational modifications, not placed; UniProt P13068 24-57, looked up, variant S29H)
L. lactis HP [4]
  Measurement of inhibitory zone, Average a + b + c: 10.93 mm
  Measurement of inhibitory zone, L. lactis HP (a): 11.2 mm
  Measurement of inhibitory zone, L. lactis HP (b): 10.7 mm
  Measurement of inhibitory zone, L. lactis HP (c): 10.9 mm

## Nisin A S29I: Nisin A derivative with I at position 29 (ITSISLCTPGCKTGALMGCNMKTATCHCIIHVSK; cysteine pairing not given here; also: lantibiotic nisin-A post-translational modifications, not placed; UniProt P13068 24-57, looked up, variant S29I)
L. lactis HP [4]
  Measurement of inhibitory zone, Average a + b + c: 9.9 mm
  Measurement of inhibitory zone, L. lactis HP (a): 9.2 mm
  Measurement of inhibitory zone, L. lactis HP (b): 11.3 mm
  Measurement of inhibitory zone, L. lactis HP (c): 9.2 mm

## Nisin A S29L: Nisin A derivative with L at position 29 (ITSISLCTPGCKTGALMGCNMKTATCHCLIHVSK; cysteine pairing not given here; also: lantibiotic nisin-A post-translational modifications, not placed; UniProt P13068 24-57, looked up, variant S29L)
L. lactis HP [4]
  Measurement of inhibitory zone, Average a + b + c: 12.76 mm
  Measurement of inhibitory zone, L. lactis HP (a): 12.6 mm
  Measurement of inhibitory zone, L. lactis HP (b): 13.5 mm
  Measurement of inhibitory zone, L. lactis HP (c): 12.2 mm

## Nisin A S29M: Nisin A derivative with M at position 29 (ITSISLCTPGCKTGALMGCNMKTATCHCMIHVSK; cysteine pairing not given here; also: lantibiotic nisin-A post-translational modifications, not placed; UniProt P13068 24-57, looked up, variant S29M)
L. lactis HP [4]
  Measurement of inhibitory zone, Average a + b + c: 13.56 mm
  Measurement of inhibitory zone, L. lactis HP (a): 13.2 mm
  Measurement of inhibitory zone, L. lactis HP (b): 14.5 mm
  Measurement of inhibitory zone, L. lactis HP (c): 13.0 mm

## Nisin A S29Q: Nisin A derivative with Q at position 29 (ITSISLCTPGCKTGALMGCNMKTATCHCQIHVSK; cysteine pairing not given here; also: lantibiotic nisin-A post-translational modifications, not placed; UniProt P13068 24-57, looked up, variant S29Q)
L. lactis HP [4]
  Measurement of inhibitory zone, Average a + b + c: 15.30 mm
  Measurement of inhibitory zone, L. lactis HP (a): 15.3 mm
  Measurement of inhibitory zone, L. lactis HP (b): 15.2 mm
  Measurement of inhibitory zone, L. lactis HP (c): 15.4 mm

## Nisin F
L. lactis HP [5]
  bioactivity compared to wild type (natural) Nisin variant: Nisin A<Nisin F

## Nisin Z
S. aureus RF122
  bioactivity compared to wild type (natural) Nisin variant: Nisin A<Nisin Z
